Measured values as given in patent US10660336B2 (priority 2014, dated 2020).
Like-named read-outs stand apart in the source and are kept apart here.

How the values were obtained:
[1] = system: pepper mottle virus (PepMoV); parameters: species or system Nicotiana benthamiana; conditions: in vivo
[2] = system: pepper mottle virus (PepMoV); parameters: species or system Capsicum anuum L.; conditions: in vivo
tobacco mosaic virus = experiment: Half leaf method, anti-viral activity against tobacco mosaic virus (local lesion count); type: in vivo; conditions: concentration of 5 ppm or above; Nicotiana tabacum cv. Xanthi nc half leaf; 3 days after inoculation
Procedure: A half leaf method was performed to determine an anti-viral activity against tobacco mosaic virus, which was provided from the plant virus genebank (PVGB), Seoul women's university, of the compounds which was determined to have the anti-viral activity against the pepper mottle virus in Example 3. The half leaf method utilizes features of producing black spots due to local lesions around the infected part by tobacco mosaic virus in Nicotiana tabacum cv. Xanthi nc which is a local lesion host. Top 3 leaves and 4 leaves of 7-8 normal leaves of the local lesion host were taken and carborundum was evenly sprayed throughout the leaves. A compound 1 (Trichodermin) sample at test concentrations dissolved in DMSO and the tobacco mosaic virus solution were mixed. Right half leaf of the leaf of the Nicotiana tabacum cv. Xanthi nc was inoculated with this mixture and the other left half leaf was inoculated with tobacco mosaic virus solution (control) using cotton swabs. After petiole of the leaf of the Nicotiana tabacum cv. […] After 3 days of inoculation, the number of local lesions was counted and 100-400 of lesions of […] control half leaf was only applied. Activity rate using the number of lesions was calculated by the following equation. […]

Structure (SMILES): CC(=O)O[C@@H]1C[C@H]2O[C@@H]3C=C(C)CC[C@]3(C)[C@]1(C)[C@]21CO1 [Trichodermin]
- spreading rate of the pepper mottle virus (green fluorescent protein in upper leaves under UV, viral RNA and coat protein) [1]: inhibits spreading rate of the pepper mottle virus
- spreading rate of the pepper mottle virus (green fluorescent protein in upper leaves under UV, viral RNA and coat protein) [2]: inhibits spreading rate of the pepper mottle virus
- anti-viral activity against the tobacco mosaic virus (control rate from number of local lesions) (tobacco mosaic virus): ≥ 97%
